Data from patent publication US20100286186A1, “NOVEL DICARBOXYLIC ACID LINKED AMINO ACID AND PEPTIDE PRODRUGS OF OPIOIDS AND USES THEREOF” (Shire LLC, priority 2009, published 2010).
Several values for one entry are separate records, joined by “and”; a condition that tells them apart may be missing. Identical values can stand only once. Marks after values point to notes of the source that are not given here.

How the values were obtained:
[1] = Bioavailability of oxycodone, codeine and dihydrocodeine from their succinyl valine ester prodrugs in the dog (oral gavage, two-way crossover); settings: dogs, oral gavage; for T>50%Cmax of dihydrocodeine: 1 mg free base equivalents dihydrocodeine/kg; for T>50%Cmax of codeine: 1 mg free base equivalents codeine/kg
Method: The characteristics of the test animals are set out in Table 10, below.
(§1) Blood samples were taken at various times after administration and submitted to analysis for the parent drug and pro-drug using a validated LC-MS-MS assay. Pharmacokinetic parameters derived from the plasma analytical data were determined using Win Nonlin.

[2] = In vitro stability of dicarboxylate amino acid ester prodrugs in simulated gastric and intestinal juice, distilled water and pH 10 buffer (HPLC); settings: for Simulated gastric fluid (pH 1.1): % remaining after 2 h/37° C.: pH 1.1, 2 h; for Distilled water (pH 5.9): % remaining after 2 h/20° C.: pH 5.9, 2 h; for Simulated intestinal fluid (pH 6.8): % remaining after 2 h/37° C.: pH 6.8, 2 h; for pH 10.0 buffer: % remaining after 2 h/20° C.: pH 10.0, 2 h
[3] = tested on: gut motility in the rat; assay: Charcoal propulsion test of GI motility in the rat; assay type: in vivo; settings: oral
Method: Test treatments were administered to groups of up to 10 rats fasted overnight prior to the test.
Test treatments were administered orally 60 minutes prior to a 2.0 mL oral dose of a 10% suspension of charcoal in 5% gum arabic. Thirty minutes after dosing with charcoal, the rats were sacrificed and the entire gastro-intestinal tract quickly and carefully removed. The distance the charcoal meal had traveled from the pyloric sphincter toward the caecum was measured and expressed as a percentage of both the total gut length and the length of the small intestine.

[4] = Systemic availability of hydrocodone in dogs after oral administration of hydrocodone or hydrocodone succinyl valine enol ester; settings: 1 mg hydrocodone free base equivalents/kg; for half-life: t½ of hydrocodone
Method: Test substances i.e. hydrocodone or hydrocodone succinyl valine enol ester were administered by oral gavage to a group of five male dogs in a two-way crossover design The characteristics of the test animals are set out in Table 26, below.
as §1

[5] = Plasma pharmacokinetics of meptazinol dicarboxylate linked prodrugs after oral gavage to dogs; assay type: in vivo, dog; settings: dog, oral gavage of prodrug, 1 mg meptazinol base equivalents/kg; for Dog Cmax (plasma meptazinol): meptazinol level; for Dog Cmax (plasma prodrug levels, in brackets): prodrug level, BLQ = below 0.5 ng/mL
[6] = Plasma pharmacokinetics of meptazinol dicarboxylate linked prodrugs after oral gavage to cynomolgus monkeys; assay type: in vivo, cynomolgus monkey; settings: cynomolgus monkey, oral gavage of prodrug, 1 mg meptazinol base equivalents/kg; for Monkey Cmax (plasma meptazinol): meptazinol level; for Monkey Cmax (plasma prodrug levels, in brackets): prodrug level, BLQ = below 0.5 ng/mL
[7] = Stability of meptazinol dicarboxylate bridged amino acid prodrugs in simulated gastric and intestinal juice and pH 7.4 buffer; assay type: physicochemical; settings: for 2 h stability in pH7.4 buffer (37° C.), Conversion to meptazinol: pH 7.4 buffer
From the text: Initially the inherent chemical and biological stability of various dicarboxylate bridged amino acid prodrugs of meptazinol, was investigated under the conditions prevailing in the GI tract. Premature hydrolysis of the prodrug in the gut lumen prior to absorption would reduce the opportunity for transient protection of the drug during its passage though the liver and the desired reduction in first pass metabolism.
The remaining concentrations of the prodrug (and also drug released) were then assayed by HPLC. Additionally their chemical stability was evaluated in pH 7.4 buffer for 2 h 37° C.

[8] = male dogs, oral, individual dogs 1M-5M

Compound | Simulated gastric fluid (pH 1.1): % remaining after 2 h/37° C. [2] [%] | Distilled water (pH 5.9): % remaining after 2 h/20° C. [2] [%] | Simulated intestinal fluid (pH 6.8): % remaining after 2 h/37° C. [2] [%] | pH 10.0 buffer: % remaining after 2 h/20° C. [2] [%] | % change from vehicle-treated animals, small intestine ([3]; 10 mg/kg) [%] | % change from vehicle-treated animals, total gut length ([3]; 10 mg/kg) [%] | % change from vehicle-treated animals, small intestine ([3]; 30 mg/kg) [%] | % change from vehicle-treated animals, total gut length ([3]; 30 mg/kg) [%] | % change from vehicle-treated animals, small intestine ([3]; 100 mg/kg) [%] | % change from vehicle-treated animals, total gut length ([3]; 100 mg/kg) [%] | T>50%Cmax of codeine ([1]; median (n=5)) | Dog Cmax (plasma meptazinol) [5] [ng/mL] | Dog Cmax (plasma prodrug levels, in brackets) [5] [ng/mL] | Monkey Cmax (plasma meptazinol) [6] [ng/mL] | Monkey Cmax (plasma prodrug levels, in brackets) [6] [ng/mL] | 2 h stability in pH7.4 buffer (37° C.), Conversion to meptazinol [7] [%] | 2 h stability in simulated intestinal fluid (37° C.), Conversion to meptazinol [7] [%] | also measured
COc1ccc2c3c1O[C@H]1[C@@H](OC(=O)CCC(=O)NC(C(=O)O)C(C)C)CCC4[C@@H](C2)N(C)CC[C@@]341 (stereo in doubt) [dihydrocodeine-[succinyl-(S)-valine]ester] | 100 | 100 | 100 | 98 | −17.4 | −16.6 | −8.5 | −8.5 | −13.3 | −12.9 |  |  |  |  |  |  |  | T>50%Cmax of dihydrocodeine ([1]; individual dogs 1-5): 3 h (2×) and 2 h and 1 h (2×); T>50%Cmax of dihydrocodeine ([1]; median (n=5)): 2^a h; % change from vehicle-treated animals, small intestine ([3]; 300 mg/kg): −35.7%; % change from vehicle-treated animals, total gut length ([3]; 300 mg/kg): −35.3%
COc1ccc2c3c1O[C@H]1[C@@H](O)C=C[C@H]4[C@@H](C2)N(C)CC[C@@]341.Cl [Codeine HCl, reference compound] |  |  |  |  |  |  |  |  |  |  | 1.5^a h |  |  |  |  |  |  | T>50%Cmax of codeine ([1]; individual dogs 1-5, HCl): 1.5 h (3×) and 0.5 h (2×)
COc1ccc2c3c1O[C@H]1[C@@H](OC(=O)CCC(=O)N[C@H](C(=O)O)C(C)C)C=CC4[C@@H](C2)N(C)CC[C@@]341 (stereo partly drawn) [Codeine-[succinyl-(S)-valine] ester, codeine-[succinyl-(S)-valine]ester] | 99 | 100 | 98 | 92 | −9.7 | −9.3 | −15.7 | −15.1 | −16.4 | −15.6 | 2^a h |  |  |  |  |  |  | T>50%Cmax of codeine ([1]; individual dogs 1-5): 2 h (4×) and 1 h
COc1ccc2c3c1O[C@H]1C(=O)CC[C@H]4[C@@H](C2)N(C)CC[C@]314 [Hydrocodone, hydrocodone] |  |  |  |  |  |  |  |  |  |  |  |  |  |  |  |  |  | AUC of hydrocodone [4, 8]: 155 ng·h/mL and 111 ng·h/mL and 91.7 ng·h/mL and 71.0 ng·h/mL and 95.3 ng·h/mL; AUCt of hydrocodone [4, 8]: 154 ng·h/mL and 107 ng·h/mL and 89.2 ng·h/mL and 69.7 ng·h/mL and 94.1 ng·h/mL; Cmax of hydrocodone [4, 8]: 119 ng/mL and 76.8 ng/mL and 57.8 ng/mL and 53.3 ng/mL and 71.1 ng/mL; T>50%Cmax of hydrocodone [4, 8]: 0.75 h (3×) and 1.25 h (2×); t½ of hydrocodone [4, 8]: 1.58 h and 1.66 h (2×) and 1.46 h; T>50%Cmax of hydrocodone ([4]; male dogs, oral, mean): 0.95 h; Tmax of hydrocodone ([4]; male dogs, oral, median): 0.5* h; Tmax ([4]; male, Beagle, dog, plasma, po): 30 min; AUC ([4]; male, Beagle, dog, plasma, po, AUC of hydrocodone, male dogs, mean): 105 ng·h/mL; AUC(0-t) ([4]; male, Beagle, dog, plasma, po, AUCt of hydrocodone, male dogs, mean): 103 ng·h/mL; Cmax ([4]; male, Beagle, dog, plasma, po, Cmax of hydrocodone, male dogs, mean (n=5)): 75.6 ng/mL; half-life ([4]; male, Beagle, dog, plasma, po, male dogs, individual dogs 1M-5M): 78.6 min; half-life ([4]; male, Beagle, dog, plasma, po, male dogs, mean): 92.4 min
CCC1(c2cccc(OC(=O)CCCC(=O)Nc3ccc(C(=O)O)cc3)c2)CCCCN(C)C1 (stereo not drawn) [Meptazinol [glutaryl-PABA] ester] |  |  |  |  |  |  |  |  |  |  |  | 3.4 | 6.7 | 1.5 | 1.7 | 80 | 6 | 1 h stability in simulated gastric fluid (37° C.), Conversion to meptazinol ([7]; simulated gastric fluid, 1 h): 5%
CCC1(c2cccc(OC(=O)C(C)(C)CC(=O)N[C@H](C(=O)O)C(C)C)c2)CCCCN(C)C1 (stereo partly drawn) [Meptazinol-[2,2-dimethylsuccinyl-(S)-valine] ester] |  |  |  |  |  |  |  |  |  |  |  | 0.9 | 25 | 0.4 | 100 | 2 | 3 | 
